# Assays:
# [1] = Solid stability experiment under light (amorphous form, crystal forms A and B of the Example 53 compound); format: physicochemical
# Experimental: (§1) The content was determined by HPLC using the external standard method. The related substance change was calculated by chromatographic peak area normalization method.
# [2] = Solubility experiment in different media (crystal form B of the Example 53 compound); format: physicochemical; conditions: thermodynamic from solid, 37° C.
# Experimental: The solubility of crystal form B of (S)-1′-(6-amino-5-((2-amino-3-chloropyridin-4-yl)thio)-3-fluoropyrazin-2-yl)-1,3-dihydrospiro[indene-2,4′-piperidin]-1-amine in media such as water, Simulated Gastric Fluid (SGF), Fasted State Simulated Intestinal Fluid (FaSSIF) and Fed State Simulated Intestinal Fluid (FeSSIF) was compared, so as to provide a basis for evaluating the druggability.
# About 2 mg of crystal form B of (S)-1′-(6-amino-5-((2-amino-3-chloropyridin-4-yl)thio)-3-fluoropyrazin-2-yl)-1,3-dihydrospiro[indene-2,4′-piperidin]-1-amine was suspended in different media for 24 hours, respectively.
# [3] = Pharmacokinetics study in rats of crystal form A of the Example 35 compound, single oral administration; format: in vivo; conditions: SD rats, intragastric, 10 mg/kg
# [4] = Determination of stable crystal form by comparing DSC spectrums (Example 35 compound); format: physicochemical
# Excerpt: The objective is to find stable crystal forms of the compound (S)-8-(6-amino-5-((2-amino-3-chloropyridin-4-yl)thio)pyrazin-2-yl)-2-cyclopropyl-8-azaspiro[4.5]dec-2-en-1-amine by polymorphic screening.
# Three crystal forms of (S)-8-(6-amino-5-((2-amino-3-chloropyridin-4-yl)thio)pyrazin-2-yl)-2-cyclopropyl-8-azaspiro[4.5]dec-2-en-1-amine, i.e., crystal forms A, B and C, were obtained by pulping, changing crystallization solvent and crystallization method.
# [5] = Solid stability experiment: high temperature, high humidity (crystal form A of the Example 35 compound); format: physicochemical; conditions: 60° C.; room temperature/92.5% RH; 50° C. and 75% RH; 5, 10, 20 and 30 days
# Experimental: as §1
# [6] = Hygroscopicity experiment (crystal form A of the Example 35 compound); format: physicochemical
# [7] = Solubility experiment in different media (crystal form A of the Example 35 compound); format: physicochemical; conditions: 37° C., 2 hours, buffers pH 1 to 8, water, FaSGF, FaSSIF, FeSSIF
# [8] = Crystal transformation investigation: pressure (tabletting) and grinding; format: physicochemical; conditions: compressed into tablets; ground 15 minutes
# Excerpt: The tablets were mashed to powder and characterized by XRPD.
# [9] = Polymorphic screening and determination of stable crystal form (Example 53 compound), DSC comparison; format: physicochemical
# Excerpt: The objective is to find stable crystal forms of (S)-1′-(6-amino-5-((2-amino-3-chloropyridin-4-yl)thio)-3-fluoropyrazin-2-yl)-1,3-dihydrospiro[indene-2,4′-piperidin]-1-amine by polymorphic screening.
# Organic solvents and water with a certain solubility was chosen to suspend (S)-1′-(6-amino-5-((2-amino-3-chloropyridin-4-yl)thio)-3-fluoropyrazin-2-yl)-1,3-dihydrospiro[indene-2,4′-piperidin]-1-amine in the solvent system, and the mixture was stirred and slurried at room temperature for one week, and then centrifuged. The supernatant was discarded, and the solid was dried under vacuum (−0.1 Mpa) at 40° C. overnight. The XRPD, DSC and TGA of the solid was determined and compared.
# Five crystal forms of (S)-1′-(6-amino-5-((2-amino-3-chloropyridin-4-yl)thio)-3-fluoropyrazin-2-yl)-1,3-dihydrospiro[indene-2,4′-piperidin]-1-amine, i.e., crystal forms A, B, C, D and E, were obtained by pulping, changing crystallization solvent and crystallization method.
# [10] = Hygroscopicity experiment (crystal form B of the Example 53 compound); format: physicochemical
# Excerpt: The hygroscopicity of crystal form B of the compound (S)-1′-(6-amino-5-((2-amino-3-chloropyridin-4-yl)thio)-3-fluoropyrazin-2-yl)-1,3-dihydrospiro[indene-2,4′-piperidin]-1-amine under different relative humidity conditions was investigated, so as to provide a basis for the crystal form screening and storage of the compound.
# Crystal form B of (S)-1′-(6-amino-5-((2-amino-3-chloropyridin-4-yl)thio)-3-fluoropyrazin-2-yl)-1,3-dihydrospiro[indene-2,4′-piperidin]-1-amine was placed in saturated water vapor with different relative humidity to achieve dynamic equilibrium between the compound and water vapor, and the percentage of hygroscopic weight gain of the compound after the equilibrium was calculated.
# [11] = Tolerance assay in mice (body weight, abnormal responses); format: in vivo, Balb/c mice; conditions: oral 10 mg/kg QD
# Experimental: (§2) Balb/c mice were used as test animals.
# 5 g of hydroxyethyl cellulose (HEC, CMC-Na, viscosity: 800-1200 Cps) was dissolved in 1000 mL of purified water, and 10 g of Tween 80 was added. The solution was mixed well to form a clear solution.
# The solution was subjected to ultrasound for 10 minutes to obtain a colorless and clear solution with a concentration of 1 mg/mL.
# After an overnight fast, Balb/c mice (3 male and 3 female) were administrated orally with the test compound at an administration dose of 10 mg/kg and an administration volume of 10 mL/kg.
# The mice were weighed daily before and after administration, and abnormal responses were observed. The mice were fed 4 hours after administration.
# [12] = Pharmacokinetics assay in rats; format: in vivo; conditions: SD rats
# Experimental: SD rats were used as test animals.
# (§3) The solution was subjected to ultrasound to obtain a clear solution. […] The concentration was 0.2 mg/mL.
# After an overnight fast, male SD rats (3 rats per group) were administered intravenously with the test compounds at an administration dose of 1 mg/kg and an administration volume of 5 mL/kg.
# 0.2 mL of blood was taken from jugular vein before administration and at 0 minute, 5 minutes, 15 minutes, 0.5 hour, 1.0 hour, 2.0 hours, 4.0 hours, 8.0 hours and 24.0 hours after administration. The blood samples were stored in EDTA-2K tubes, and centrifuged for 6 minutes at 6000 rpm, at 4° C. to separate the blood plasma. The plasma samples were stored at −80° C.
# [13] = Pharmacokinetics assay in mice; format: in vivo; conditions: Balb/c mice
# Experimental: as §2, §3
# After an overnight fast, male Balb/c mice were administered intravenously with the test compounds at an administration dose of 1 mg/kg and an administration volume of 5 mL/kg.
# Blood was taken before administration and at 0 minute, 5 minutes, 15 minutes, 0.5 hour, 1.0 hour, 2.0 hours, 4.0 hours, 8.0 hours and 24.0 hours after administration. The blood samples were stored in EDTA-2K tubes, and centrifuged for 6 minutes at 6000 rpm, at 4° C. to separate the blood plasma. The plasma samples were stored at −80° C. The mice were fed 4 hours after administration.
# [14] = Light 5000 ± 500 lux (sealed), Day 0
# [15] = Light 5000 ± 500 lux (sealed), Day 5
# [16] = Light 5000 ± 500 lux (sealed), Day 10
compound,measurement,setting,value
"Nc1nc(N2CCC3(CC2)Cc2ccccc2[C@H]3N)c(F)nc1Sc1ccnc(N)c1Cl [amorphous form of (S)-1′-(6-amino-5-((2-amino-3-chloropyridi] [(S)-1′-(6-amino-5-((2-amino-3-chloropyridin-4-yl)thio)-3-fluoropyrazin-2-yl)-1,3-dihydrospiro[indene-2,4′-piperidin]-1-amine]",10-day total impurities gain,"[1]; light 5000 lx±500 lx, 10 days",19.34%
"Nc1nc(N2CCC3(CC2)Cc2ccccc2[C@H]3N)c(F)nc1Sc1ccnc(N)c1Cl [(S)-1′-(6-amino-5-((2-amino-3-chloropyridin-4-yl)thio)-3-fluoropyrazin-2-yl)-1,3-dihydrospiro[indene-2,4′-piperidin]-1-amine]",solubility thermodynamic at 24 h,"[2]; simulated gastric fluid, SGF",2050 µg/mL
same,solubility thermodynamic at 24 h,"[2]; Fa (Fasted State Simulated Intestinal Fluid, FaSSIF)",170 µg/mL
same,solubility thermodynamic at 24 h,"[2]; Fe (Fed State Simulated Intestinal Fluid, FeSSIF)",64 µg/mL
same,solubility thermodynamic at 24 h,[2]; water,1 µg/mL
Nc1nc(N2CCC3(CC=C(C4CC4)[C@H]3N)CC2)cnc1Sc1ccnc(N)c1Cl [(S)-8-(6-amino-5-((2-amino-3-chloropyridin-4-yl)thio)pyrazin-2-yl)-2-cyclopropyl-8-azaspiro[4.5]dec-2-en-1-amine],Metabolic property (pharmacokinetics experiment in rats),[3],good metabolic property
same,"Thermodynamic stability by comparing DSC spectrums of crystal forms A, B and C",[4],better thermodynamic stability
same,Impurity increase,[5],less than 0.15%
same,Crystal form (XRPD) after one cycle of humidification and dehumidification,[6]; 0 to 95% relative humidity,the crystal form didn't transform
same,Hygroscopic weight gain,[6]; RH 80%,about 0.544%
same,Hygroscopicity,[6]; RH 80%,slight hygroscopicity
same,Solubility compared in different media,[7],better solubility under acidic conditions
same,Crystal transformation after tabletting and grinding (XRPD),[8],didn't undergo crystal transformation
"Nc1nc(N2CCC3(CC2)Cc2ccccc2[C@H]3N)c(F)nc1Sc1ccnc(N)c1Cl [crystal form B of (S)-1′-(6-amino-5-((2-amino-3-chloropyridi] [(S)-1′-(6-amino-5-((2-amino-3-chloropyridin-4-yl)thio)-3-fluoropyrazin-2-yl)-1,3-dihydrospiro[indene-2,4′-piperidin]-1-amine]","Thermodynamic stability by comparing DSC spectrums of crystal forms A, B, C, D and E",[9],best thermodynamic stability among the five crystal forms
same,Crystal form (XRPD) after one cycle of humidification and dehumidification,[10]; 0 to 95% relative humidity,the crystal form didn't transform
same,Hygroscopic weight gain,[10]; RH 80%,about 1.639%
same,Hygroscopicity,[10]; RH 80%,slight hygroscopicity
same,Content (HPLC) Day 0,[1]; [14],98.34%
same,Total impurities,[1]; [14],1.66%
same,Content (HPLC) Day 5,[1]; [15],97.28%
same,Total impurities,[1]; [15],2.72%
same,Total impurities gain,"[1]; Light 5000 ± 500 lux (sealed), Day 5 vs Day 0",1.06%
same,Content (HPLC) Day 10,[1]; [16],96.46%
same,Total impurities,[1]; [16],3.54%
same,Total impurities gain,"[1]; Light 5000 ± 500 lux (sealed), Day 10 vs Day 0",1.88%
"Nc1nc(N2CCC3(CC2)Cc2ccccc2[C@H]3N)c(F)nc1Sc1ccnc(N)c1Cl [Example 53, (S)-1′-(6-amino-5-((2-amino-3-chloropyridin-4-yl)thio)-3-fluoropyrazin-2-yl)-1,3-dihydrospiro[indene-2,4′-piperidin]-1-amine]","Body weight (Mean), Day 1",[11]; female Balb/c mice,22.07 g
same,"Body weight (Mean), Day 16",[11]; female Balb/c mice,25.09 g
same,"Body weight changes ΔW/W1 (Mean), Day 16",[11]; female Balb/c mice,13.80%
same,"Body weight (Mean), Day 1",[11]; male Balb/c mice,23.01 g
same,"Body weight (Mean), Day 16",[11]; male Balb/c mice,28.30 g
same,"Body weight changes ΔW/W1 (Mean), Day 16",[11]; male Balb/c mice,23.25%
same,F,[12],118%
same,F,[13],71%
